# Data as given in patent US8859543B2, “Imidazo[1,2-a]pyrazine derivatives and their use for the prevention or treatment of neurological, psychiatric and metabolic disorders and diseases” (Janssen Pharmaceutica NV, priority 2010, dated 2014).
# Target: T1, Rat recombinant PDE10A (rPDE10A2) (Rattus norvegicus, UniProt Q9QYJ6)
# T1 construct: made in house; host or cells: Sf9 insect cells, baculovirus
# T1 sequence (Q9QYJ6 1-794): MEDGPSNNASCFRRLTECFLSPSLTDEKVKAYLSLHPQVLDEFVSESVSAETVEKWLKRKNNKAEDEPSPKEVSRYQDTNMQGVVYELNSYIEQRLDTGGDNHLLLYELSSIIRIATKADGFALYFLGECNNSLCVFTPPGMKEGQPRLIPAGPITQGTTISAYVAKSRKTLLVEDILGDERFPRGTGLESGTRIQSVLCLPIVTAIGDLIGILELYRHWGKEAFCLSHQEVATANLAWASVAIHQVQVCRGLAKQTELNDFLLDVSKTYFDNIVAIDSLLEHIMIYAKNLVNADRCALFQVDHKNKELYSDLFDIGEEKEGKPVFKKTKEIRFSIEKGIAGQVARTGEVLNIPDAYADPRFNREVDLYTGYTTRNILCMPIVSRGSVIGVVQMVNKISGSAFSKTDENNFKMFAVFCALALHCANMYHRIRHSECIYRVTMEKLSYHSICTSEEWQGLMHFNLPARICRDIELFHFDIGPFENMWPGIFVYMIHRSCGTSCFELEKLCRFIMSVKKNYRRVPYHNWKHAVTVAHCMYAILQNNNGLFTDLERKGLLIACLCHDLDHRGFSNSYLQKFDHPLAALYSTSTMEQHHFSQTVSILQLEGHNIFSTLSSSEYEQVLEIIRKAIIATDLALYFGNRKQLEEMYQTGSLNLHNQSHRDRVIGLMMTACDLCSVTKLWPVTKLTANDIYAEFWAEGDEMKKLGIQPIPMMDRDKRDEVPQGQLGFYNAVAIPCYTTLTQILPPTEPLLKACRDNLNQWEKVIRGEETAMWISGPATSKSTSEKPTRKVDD
# Experiment: In vitro assay PDE10A (SPA, 3H-cAMP)
# Type: biochemical
# Details: pIC50 corresponds to the -log IC50 expressed in mol/L; read-out: PDE10A2 pIC50 (converted)
# Protocol: Rat recombinant PDE10A (rPDE10A2) was expressed in Sf9 cells using a recombinant rPDE10A baculovirus construct. Cells were harvested after 48 h of infection and the rPDE10A protein was purified by metal chelate chromatography on Ni-sepharose 6FF. Tested compounds were dissolved and diluted in 100% DMSO to a concentration 100 fold of the final concentration in the assay. Compound dilutions (0.4 μl) were added in 384 well plates to 20 μl of incubation buffer (50 mM Tris pH 7.8, 8.3 mM MgCl2, 1.7 mM EGTA). 10 μl of rPDE10A enzyme in incubation buffer was added and the reaction was started by addition of 10 μl substrate to a final concentration of 60 nM cAMP and 0.008 μCi ^3H-cAMP. The reaction was incubated for 60 min. at RT. […] After sedimentation of the beads during 30 min. the radioactivity was measured in a Perkin Elmer Topcount scintillation counter and results were expressed as cpm. For blank values the enzyme was omitted from the reaction and replaced by incubation buffer. Control values were obtained by addition of a final concentration of 1% DMSO instead of compound. The same assay principle is applied for the measurement of the affinity of the compound for other members of the PDE family with appropriate modifications in incubation buffer, substrate concentration, incubation time and stop solution.
row,SMILES,IC50
1,"COC(C)(C)COc1ccc(-c2c(C)nc3c(-c4ccncc4)nccn23)cn1 [compound 2, 3-[6-(2-Methoxy-2-methyl-propoxy)-pyridin-3-yl]-2-methyl-8-pyridin-4-yl-imidazo[1,2-a]pyrazine]",708 nM
2,Cc1nc2c(N3CCOCC3)nccn2c1-c1cnn(CC2CCCCO2)c1 (stereo not drawn) [compound 73],95.5 nM
3,"Cc1nc2c(N3CCOCC3)nccn2c1-c1cnn(C2CCOC2)c1 (single isomer, unassigned) [compound 88]",132 nM
4,"Cc1nc2c(N3CCOCC3)nccn2c1-c1cnn(CC2CC2(F)F)c1 (single isomer, unassigned) [compound 47]",28.2 nM
5,"Cc1nc2c(N3CCOCC3)nccn2c1-c1cnn(C2CCOC2)c1 (single isomer, unassigned) [compound 109]",178 nM
6,"Cc1nc2c(N3CCOCC3)nccn2c1-c1cnn(CC2CC2(F)F)c1 (single isomer, unassigned) [compound 64]",83.2 nM

# More lines, now with the values ahead:
row,IC50,SMILES
1,135 nM,"Cc1nc2c(-c3ccncc3)nccn2c1-c1cnn(CC2CCCCO2)c1 (single isomer, unassigned) [compound 92]"
2,468 nM,CCOCCn1cc(-c2c(C)nc3c(-c4ccncc4)nccn23)cn1 [compound 128]
3,56.2 nM,"COC(Cn1cc(-c2c(C)nc3c(N4CCOCC4)nccn23)cn1)C(C)C (single isomer, unassigned) [compound 54]"
4,490 nM,"COCCn1cc(-c2c(C)nc3c(N4CCOCC4)nc(C4CC4)cn23)cn1 [compound 37, 6-Cyclopropyl-3-[1-(2-methoxy-ethyl)-1H-pyrazol-4-yl]-2-methyl-8-morpholin-4-yl-imidazo[1,2-a]pyrazine]"
5,112 nM,"Cc1nc2c(-c3ccncc3)nccn2c1-c1cnn(CC2CCCCO2)c1 (single isomer, unassigned) [compound 80]"
6,123 nM,Cc1nc2c(N3CCOCC3)nccn2c1-c1cnn(CCCF)c1 [compound 86]
7,501 nM,Cc1nc2c(-c3ccncc3)nccn2c1-c1ccc(OCC(F)(F)F)nc1 [compound 129]
8,457 nM,Cc1nc2c(-c3ccncc3)nccn2c1-c1cnn(CCN2CCOCC2)c1 [compound 126]
9,145 nM,Cc1nc2c(N3CCOCC3)nccn2c1-c1cnn(CC(=O)C2CC2)c1 [compound 98]
10,309 nM,CC(=O)Cn1cc(-c2c(C)nc3c(N4CCOCC4)nccn23)cn1 [compound 117]
11,631 nM,COCCn1cc(-c2c(OC)nc3c(N4CCOCC4)nccn23)cn1 [compound 137]
12,479 nM,"COc1ncc(-c2c(C)nc3c(N4CCOCC4)nccn23)cn1 [compound 32, 3-(2-Methoxy-pyrimidin-5-yl)-2-methyl-8-morpholin-4-yl-imidazo[1,2-a]pyrazine]"
13,537 nM,COCCOc1ccc(-c2c(C)nc3c(-c4ccncc4)nccn23)cn1 [compound 132]
14,933 nM,"COCCn1cc(-c2c(C)nc3c(N4CCOCC4)nc(CCC(F)(F)F)cn23)cn1 [compound 39, 3-[1-(2-Methoxy-ethyl)-1H-pyrazol-4-yl]-2-methyl-8-morpholin-4-yl-6-(3,3,3-trifluoro-propyl)-imidazo[1,2-a]pyrazine]"
15,550 nM,Cc1cc(-c2c(C)nc3c(N4CCOCC4)nccn23)ccn1 [compound 133]
16,85.1 nM,CCc1ccc(-c2c(C3CC3)nc3c(N4CCOCC4)nccn23)cn1 [compound 66]
17,871 nM,Cc1nc2c(N3CCOCC3)nccn2c1-c1ccc(CCN2CCCC2)nc1 [compound 140]
18,776 nM,Cc1nc2c(N3CCOCC3)nccn2c1-c1ccc(-c2ccc(F)cc2)nc1 [compound 139]
19,871 nM,"Cc1nc2c(N3CCOCC3)nccn2c1-c1cc[nH]c1 [compound 43, 2-Methyl-8-morpholin-4-yl-3-(1H-pyrrol-3-yl)-imidazo[1,2-a]pyrazine]"
20,75.9 nM,COC(C)(C)Cc1ccc(-c2c(C3CC3)nc3c(N4CCOCC4)nccn23)cn1 [compound 60]
21,135 nM,CCOCCn1cc(-c2c(C)nc3c(N4CCOCC4)nccn23)cn1 [compound 93]
22,100 nM,COC[C@H](C)n1cc(-c2c(C)nc3c(N4CCOCC4)nccn23)cn1 [compound 75]
23,74.1 nM,"COC(Cn1cc(-c2c(C)nc3c(N4CCOCC4)nccn23)cn1)C(C)C (single isomer, unassigned) [compound 59]"
24,457 nM,Cc1nc2c(N3CCOCC3)nccn2c1-c1cnn(CCOC(C)C)c1 [compound 127]
25,120 nM,Cc1nc2c(N3CCOCC3)nccn2c1-c1cnc(N2CCOCC2)nc1 [compound 85]
26,537 nM,COCCn1cc(-c2c(OC)nc3c(N4CCCC4)nccn23)cn1 [compound 131]

# Tested on: apomorphine-induced stereotypy
# Experiment: Apomorphine-induced stereotypy in rats (APO)
# Type: in vivo
# Details: Rattus norvegicus, read-out: APO ED50
# Protocol: Apomorphine-Induced Stereotypy in Rats (APO)
# Apomorphine (1.0 mg/kg, i.v.)-induced stereotypy (compulsive sniffing, licking, chewing) was scored every 5 min. over the first hour after injection of apomorphine, following a 1 hour interval pre-treatment with the test compound. The score system was: (3) pronounced, (2) moderate, (1) slight, and (O) absent.
row,SMILES,ED50
1,Cc1nc2c(N3CCOCC3)nccn2c1-c1ccc(C(C)C)nc1 [compound 107],5 mg/kg
2,"COCCc1ccc(-c2c(C3CC3)nc3c(N4CCOCC4)nccn23)cn1 [compound 10, 2-Cyclopropyl-3-[6-(2-methoxy-ethyl)-pyridin-3-yl]-8-morpholin-4-yl-imidazo[1,2-a]pyrazine]",1.2 mg/kg
3,"Cc1nc2c(N3CCOCC3)nccn2c1-c1ccc(CCOC(C)C)nc1 [compound 21, 3-[6-(2-Isopropoxy-ethyl)-pyridin-3-yl]-2-methyl-8-morpholin-4-yl-imidazo[1,2-a]pyrazine]",1.2 mg/kg
4,"COC(C)(C)Cc1ccc(-c2c(C)nc3c(N4CCOCC4)nccn23)cn1 [compound 7, 3-[6-(2-Methoxy-2-methyl-propyl)-pyridin-3-yl]-2-methyl-8-morpholin-4-yl-imidazo[1,2-a]pyrazine]",1.2 mg/kg
5,CCc1nc2c(N3CCOCC3)nccn2c1-c1cnn(CCOC)c1 [compound 100],5 mg/kg
6,"Cc1nc2c(N3CCOCC3)nccn2c1-c1coc(CC(C)C)n1 [compound 41, 3-(2-Isobutyl-oxazol-4-yl)-2-methyl-8-morpholin-4-yl-imidazo[1,2-a]pyrazine]",5 mg/kg

# Same assay, conditions: Rattus norvegicus; not active at 2.5 or at 10 mg/kg, not further tested; read-out: APO ED50 (not active at threshold dose)
row,SMILES,ED50
1,"CO[C@H]1CCN(c2ccc(-c3c(C)nc4c(N5CCOCC5)nccn34)cn2)C1 [compound 24, (S)-3-[6-(3-Methoxy-pyrrolidin-1-yl)-pyridin-3-yl]-2-methyl-8-morpholin-4-yl-imidazo[1,2-a]pyrazine]",> 2.5 mg/kg
2,"Cc1nc2c(N3CCOCC3)nccn2c1-c1ccc(CCO)nc1 [compound 18, 2-[5-(2-Methyl-8-morpholin-4-yl-imidazo[1,2-a]pyrazin-3-yl)-pyridin-2-yl]-ethanol]",> 2.5 mg/kg
3,Cc1nc2c(N3CCOCC3)nccn2c1-c1ccc(CC(C)C)nc1 [compound 106],> 2.5 mg/kg
4,Cc1nc2c(N3CCOCC3)nccn2c1-c1ccc(NC(C)C)nc1 [compound 103],> 2.5 mg/kg
5,"COCCc1ccc(-c2c(C)nc3c(N4CCOCC4)nccn23)nc1 [compound 31, 3-[5-(2-Methoxy-ethyl)-pyridin-2-yl]-2-methyl-8-morpholin-4-yl-imidazo[1,2-a]pyrazine]",> 2.5 mg/kg
6,Cc1nc2c(N3CCOCC3)nccn2c1-c1ccc(N2CCCC2)nc1 [compound 123],> 2.5 mg/kg
7,"Cc1nc2c(N3CCOCC3)nccn2c1-c1ccc(N2CCNCC2)nc1 [compound 23, 2-Methyl-8-morpholin-4-yl-3-(6-piperazin-1-yl-pyridin-3-yl)-imidazo[1,2-a]pyrazine]",> 2.5 mg/kg
8,"CCc1ccc(-c2c(C)nc3c(N4CCOCC4)nccn23)cn1 [compound 26, 3-(6-Ethyl-pyridin-3-yl)-2-methyl-8-morpholin-4-yl-imidazo[1,2-a]pyrazine]",> 2.5 mg/kg
9,COCCc1ccc(-c2c(C)nc3c(N4CCCC4)nccn23)cn1 [compound 124],> 2.5 mg/kg
10,"COCCc1ccc(-c2c(C(C)C)nc3c(N4CCOCC4)nccn23)cn1 [compound 13, 2-Isopropyl-3-[6-(2-methoxy-ethyl)-pyridin-3-yl]-8-morpholin-4-yl-imidazo[1,2-a]pyrazine]",> 2.5 mg/kg
